Measured values: patent publication US20220387604A1, “SELECTIVE DUAL HISTONE DEACETYLASE 6/8 (HDAC6/8) DEGRADERS AND METHODS OF USE THEREOF” (DANA-FARBER CANCER INSTITUTE, INC., priority 2019, published 2022)

Target: T1, HDAC7 (Homo sapiens, UniProt Q8WUI4)
T1 construct: purchased Reaction Biology
T1 sequence (Q8WUI4 1-952): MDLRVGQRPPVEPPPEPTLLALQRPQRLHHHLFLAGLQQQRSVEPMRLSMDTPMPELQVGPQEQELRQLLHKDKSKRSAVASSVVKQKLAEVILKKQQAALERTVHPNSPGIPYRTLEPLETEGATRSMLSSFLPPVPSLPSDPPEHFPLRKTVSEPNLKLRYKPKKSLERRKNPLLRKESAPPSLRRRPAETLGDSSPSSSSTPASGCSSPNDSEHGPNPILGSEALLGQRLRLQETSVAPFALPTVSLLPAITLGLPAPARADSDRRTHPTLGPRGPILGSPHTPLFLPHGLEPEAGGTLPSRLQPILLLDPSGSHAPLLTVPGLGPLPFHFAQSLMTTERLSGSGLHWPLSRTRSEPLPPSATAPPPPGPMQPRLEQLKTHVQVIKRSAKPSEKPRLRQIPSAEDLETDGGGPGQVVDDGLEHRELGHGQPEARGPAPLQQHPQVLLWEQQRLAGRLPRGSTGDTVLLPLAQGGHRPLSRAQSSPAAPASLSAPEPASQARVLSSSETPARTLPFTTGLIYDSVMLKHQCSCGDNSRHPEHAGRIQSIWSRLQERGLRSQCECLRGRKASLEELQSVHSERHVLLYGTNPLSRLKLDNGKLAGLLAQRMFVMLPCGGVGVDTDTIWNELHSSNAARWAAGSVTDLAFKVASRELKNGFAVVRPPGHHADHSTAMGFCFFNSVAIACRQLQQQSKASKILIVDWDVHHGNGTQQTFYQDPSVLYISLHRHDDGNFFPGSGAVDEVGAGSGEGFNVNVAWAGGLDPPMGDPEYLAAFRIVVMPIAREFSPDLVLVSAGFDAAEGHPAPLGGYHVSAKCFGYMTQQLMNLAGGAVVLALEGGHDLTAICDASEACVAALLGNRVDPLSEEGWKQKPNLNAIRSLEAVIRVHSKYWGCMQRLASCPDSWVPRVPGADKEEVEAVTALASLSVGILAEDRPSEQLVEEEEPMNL
Experiment: HDAC enzymatic assay (Reaction Biology), HDAC7
Type: biochemical
Settings: summary of Table 1
Protocol: Compound 1 was tested in an enzymatic assay from Reaction Biology® against 10 HDAC isoforms. The IC50 values were derived from a 10-dose response curve.
Base Reaction buffer: 50 mM Tris-HCl, pH8.0, 137 mM NaCl, 2.7 mM KCl, and 1 mM MgCl2, Add fresh: 1 mg/ml BSA, 1% DMSO
Class2A Substrate (HDAC4, HDAC5, HDAC7, and HDAC9): Boc-Lys(trifluoroacetyl)-AMC
1. Delivered 2× enzyme in wells of reaction plate except in the control wells and added buffer to control wells. 2. Delivered compounds in 100% DMSO into the enzyme mixture by Acoustic technology (Echo550; nanoliter range). Spin down and pre-incubation. 3. Delivered 2× Substrate Mixture (Fluorogenic HDAC Substrate and co-factor if applicable) in all reaction wells to initiate the reaction. Spin and shake. 4. Incubated for 30 min for Class 2A, 1 h for HDAC1, 2, 3, and 6, and 2 h for the rest of HDAC isoforms and SIRTs at 30° C. with seal.
5. Added Developer with Trichostatin A (or Nicotinamide for SIRTs) to stop the reaction and to generate fluorescent color. 6. The fluorescence that was generated was detected with excitation (Ex) at […] and emission (Em) at 460 nM by the EnVision Multilabel Plate Reader (PerkinElmer®, Santa Clara, Calif., USA).
IC50 values were derived from a 10-dose response curve.

## O=C(/C=C/c1ccc(CN(CCOCCOCCNc2cccc3c2C(=O)N(C2CCC(=O)NC2=O)C3=O)CCc2c[nH]c3ccccc23)cc1)NO (stereo not shown) [Compound 1, (E)-3-(4-(((2-(1H-indol-3-yl)ethyl)(2-(2-(2-((2-(2,6-dioxopiperidin-3-yl)-1,3-dioxoisoindolin-4-yl)amino)ethoxy)ethoxy)ethyl)amino)methyl)phenyl)-N-hydroxyacrylamide]
  inhibition of enzymatic activity of HDAC7 (in words): did not inhibit
